Values of other authors, collected in patent publication US20210100740A1, “BIO-ADHESIVE DISSOLVING COMPOUNDS AND DEVICE” (Segal Innovations LLC, priority 2019, published 2021).

Structure (SMILES): CO[C@@]12[C@H](COC(N)=O)C3=C(C(=O)C(C)=C(N)C3=O)N1C[C@@H]1N[C@@H]12 [mitomycin]
- degradation in acidic solutions and when exposed to light (acidic solutions with a pH of less than 6, exposed to light): rapid degradation
- how long mitomycin lasts (refrigerated between 2° C. and 8° C. without being exposed to light): up to one week
